Experiments:
Format in all cases: in vivo
Cobu = assay: plant injury after spraying emerged plants (Table D); parameters: scale not given here
Text: (§1) Topsoil (silt loam) is sieved through a screen having 1.27 cm openings. […] This mixture is steam sterilized and then placed in aluminum pans 6.985 cm deep having ten holes in the bottom each 0.635 cm in diameter. The soil mixture is compacted to a depth of 1.27 cm. from the top of the pan. A predetermined number of seeds of each of several dicotyledonous and monocotyledonous annual plant species and/or vegetative propagules for the perennial plant species are placed on the soil and pressed into the soil surface. The seeds and/or vegetative propagules are covered with 1.27 cm of a mixture of 50% topsoil and 50% of a mixture of Canadian sphagnum peat moss, vermiculite and a wetting agent. The pans are then placed on a capillary mat on a greenhouse bench and subirrigated as needed.
(§2) In the following Table D the legends used to identify the plant species are the same as those used in the preceding Table B.

Grso = assay: as above; parameters: scale not given here
Text: as §1, §2

Rice = assay: as above; parameters: scale not given here
Text: as §1, §2

Corn = assay: as above; parameters: scale not given here
Text: as §1, §2

Mogl = assay: as above; parameters: scale not given here
Text: as §1, §2

Lacg = assay: as above; parameters: scale not given here
Text: as §1, §2

Bygr = assay: as above; parameters: scale not given here
Text: as §1, §2

Grft = assay: as above; parameters: scale not given here
Text: as §1, §2

Prmi = assay: as above; parameters: scale not given here
Text: as §1, §2

Whez = assay: as above; parameters: scale not given here
Text: as §1, §2

Sobe = assay: as above; parameters: scale not given here
Text: as §1, §2

Cocklebur = assay: Pre-emergent herbicidal activity (Table A); details: Xanthium strumarium, pre-emergence, Cobu, 11.2 kg/ha, 10-14 days, read-out: herbicidal rating (% inhibition)
Outline: (§3)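 Seeds or vegetative propagules were set on topsoil compacted to 0.95 to 1.27 cm below the pan rim, then covered with soil thoroughly mixed with a known amount of test compound in acetone or water carrier. Ratings follow a scale of percent inhibition per species.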

Velvetleaf = assay: Pre-emergent herbicidal activity (Table A); details: Abutilon theophrasti, pre-emergence, Vele, 11.2 kg/ha, 10-14 days, read-out: herbicidal rating (% inhibition)
Outline: as §3

Morningglory = assay: Pre-emergent herbicidal activity (Table A); details: Ipomoea, pre-emergence, Mogl, 11.2 kg/ha, 10-14 days, read-out: herbicidal rating (% inhibition)
Outline: as §3

Downy Brome = assay: Pre-emergent herbicidal activity (Table A); details: Bromus tectorum, pre-emergence, Dobr, 11.2 kg/ha, 10-14 days, read-out: herbicidal rating (% inhibition)
Outline: as §3

Barnyardgrass = assay: Pre-emergent herbicidal activity (Table A); details: Echinochloa crus-galli, pre-emergence, Bygr, 11.2 kg/ha, 10-14 days, read-out: herbicidal rating (% inhibition)
Outline: as §3

Yellow Nutsedge = assay: Pre-emergent herbicidal activity (Table A); details: Cyperus, pre-emergence, Yens, 11.2 kg/ha, 10-14 days, read-out: herbicidal rating (% inhibition)
Outline: as §3

COC(=O)c1c(OC)nc(C(F)(F)Cl)c(C(=O)OC)c1CC(C)C [Compound 30, 3,5-pyridinedicarboxylic acid, 2-(chlorodifluoromethyl)-6-methoxy-4-(2-methylpropyl)-, dimethyl ester]
25 to 49%: inhibition at 11200 g/ha (Cocklebur)
0: plant injury rating, Cobu (Cobu; 0.5605 kg/ha) | plant injury rating, Cobu (Cobu; 1.1210 kg/ha) | plant injury rating, Grso (Grso; 0.5605 kg/ha) | plant injury rating, Grso (Grso; 1.1210 kg/ha) | plant injury rating, Rice (Rice; 0.5605 kg/ha) | plant injury rating, Rice (Rice; 1.1210 kg/ha) | plant injury rating, Rice (Rice; 2.8025 kg/ha) | plant injury rating, Rice (Rice; 5.6050 kg/ha) | plant injury rating, Rice (Rice; 8.4075 kg/ha) | plant injury rating, Rice (Rice; 11.2100 kg/ha) | plant injury rating, Lacg (Lacg; 1.1210 kg/ha) | plant injury rating, Bygr (Bygr; 0.5605 kg/ha) | plant injury rating, Bygr (Bygr; 1.1210 kg/ha) | plant injury rating, Grft (Grft; 1.1210 kg/ha) | plant injury rating, Prmi (Prmi; 0.5605 kg/ha) | plant injury rating, Prmi (Prmi; 1.1210 kg/ha) | plant injury rating, Prmi (Prmi; 5.6050 kg/ha) | plant injury rating, Prmi (Prmi; 8.4075 kg/ha) | plant injury rating, Prmi (Prmi; 11.2100 kg/ha) | plant injury rating, Whez (Whez; 0.5605 kg/ha) | plant injury rating, Whez (Whez; 1.1210 kg/ha) | plant injury rating, Whez (Whez; 2.8025 kg/ha) | plant injury rating, Whez (Whez; 5.6050 kg/ha) | plant injury rating, Whez (Whez; 8.4075 kg/ha) | plant injury rating, Whez (Whez; 11.2100 kg/ha) | plant injury rating, Sobe (Sobe; 0.5605 kg/ha)
75 to 100%: inhibition at 11200 g/ha (Velvetleaf) | inhibition at 11200 g/ha (Morningglory) | inhibition at 11200 g/ha (Downy Brome) | inhibition at 11200 g/ha (Barnyardgrass)
50 to 74%: inhibition at 11200 g/ha (Yellow Nutsedge)
2: plant injury rating, Cobu (Cobu; 8.4075 kg/ha) | plant injury rating, Cobu (Cobu; 11.2100 kg/ha) | plant injury rating, Corn (Corn; 2.8025 kg/ha) | plant injury rating, Corn (Corn; 11.2100 kg/ha) | plant injury rating, Mogl (Mogl; 11.2100 kg/ha) | plant injury rating, Lacg (Lacg; 2.8025 kg/ha) | plant injury rating, Lacg (Lacg; 5.6050 kg/ha) | plant injury rating, Bygr (Bygr; 2.8025 kg/ha) | plant injury rating, Grft (Grft; 2.8025 kg/ha) | plant injury rating, Grft (Grft; 5.6050 kg/ha)
1: plant injury rating, Cobu (Cobu; 2.8025 kg/ha) | plant injury rating, Cobu (Cobu; 5.6050 kg/ha) | plant injury rating, Grso (Grso; 2.8025 kg/ha) | plant injury rating, Grso (Grso; 5.6050 kg/ha) | plant injury rating, Grso (Grso; 8.4075 kg/ha) | plant injury rating, Grso (Grso; 11.2100 kg/ha) | plant injury rating, Corn (Corn; 0.5605 kg/ha) | plant injury rating, Corn (Corn; 1.1210 kg/ha) | plant injury rating, Corn (Corn; 5.6050 kg/ha) | plant injury rating, Corn (Corn; 8.4075 kg/ha) | plant injury rating, Mogl (Mogl; 0.5605 kg/ha) | plant injury rating, Mogl (Mogl; 1.1210 kg/ha) | plant injury rating, Mogl (Mogl; 2.8025 kg/ha) | plant injury rating, Mogl (Mogl; 5.6050 kg/ha) | plant injury rating, Mogl (Mogl; 8.4075 kg/ha) | plant injury rating, Lacg (Lacg; 0.5605 kg/ha) | plant injury rating, Lacg (Lacg; 8.4075 kg/ha) | plant injury rating, Lacg (Lacg; 11.2100 kg/ha) | plant injury rating, Bygr (Bygr; 5.6050 kg/ha) | plant injury rating, Bygr (Bygr; 8.4075 kg/ha) | plant injury rating, Bygr (Bygr; 11.2100 kg/ha) | plant injury rating, Grft (Grft; 0.5605 kg/ha) | plant injury rating, Grft (Grft; 8.4075 kg/ha) | plant injury rating, Grft (Grft; 11.2100 kg/ha) | plant injury rating, Prmi (Prmi; 2.8025 kg/ha) | plant injury rating, Sobe (Sobe; 1.1210 kg/ha) | plant injury rating, Sobe (Sobe; 2.8025 kg/ha) | plant injury rating, Sobe (Sobe; 5.6050 kg/ha) | plant injury rating, Sobe (Sobe; 8.4075 kg/ha) | plant injury rating, Sobe (Sobe; 11.2100 kg/ha)

COC(=O)c1c(OC)nc(C(F)(F)F)c(C2=NCCS2)c1CC(C)C [Compound 50, 3-pyridinecarboxylic acid, 5-(4,5-dihydro-2-thiazolyl)-2-methoxy-4-(2-methylpropyl)-6-(trifluoromethyl)-, methyl ester]
75 to 100%: inhibition at 11200 g/ha (Cocklebur) | inhibition at 11200 g/ha (Velvetleaf) | inhibition at 11200 g/ha (Morningglory) | inhibition at 11200 g/ha (Downy Brome) | inhibition at 11200 g/ha (Barnyardgrass) | inhibition at 11200 g/ha (Yellow Nutsedge)
1: plant injury rating, Cobu (Cobu; 0.2803 kg/ha) | plant injury rating, Rice (Rice; 1.1210 kg/ha) | plant injury rating, Mogl (Mogl; 0.0701 kg/ha) | plant injury rating, Bygr (Bygr; 1.1210 kg/ha) | plant injury rating, Grft (Grft; 0.2803 kg/ha) | plant injury rating, Grft (Grft; 1.1210 kg/ha) | plant injury rating, Prmi (Prmi; 0.2803 kg/ha) | plant injury rating, Sobe (Sobe; 0.2803 kg/ha)
2: plant injury rating, Cobu (Cobu; 1.1210 kg/ha) | plant injury rating, Mogl (Mogl; 0.2803 kg/ha) | plant injury rating, Mogl (Mogl; 1.1210 kg/ha) | plant injury rating, Grft (Grft; 5.3808 kg/ha) | plant injury rating, Sobe (Sobe; 1.1210 kg/ha)
3: plant injury rating, Cobu (Cobu; 5.3808 kg/ha) | plant injury rating, Mogl (Mogl; 5.3808 kg/ha) | plant injury rating, Lacg (Lacg; 0.2803 kg/ha) | plant injury rating, Lacg (Lacg; 1.1210 kg/ha) | plant injury rating, Lacg (Lacg; 5.3808 kg/ha) | plant injury rating, Sobe (Sobe; 5.3808 kg/ha)
0: plant injury rating, Cobu (Cobu; 0.0701 kg/ha) | plant injury rating, Grso (Grso; 0.0701 kg/ha) | plant injury rating, Grso (Grso; 0.2803 kg/ha) | plant injury rating, Grso (Grso; 1.1210 kg/ha) | plant injury rating, Rice (Rice; 0.0701 kg/ha) | plant injury rating, Rice (Rice; 0.2803 kg/ha) | plant injury rating, Rice (Rice; 5.3808 kg/ha) | plant injury rating, Corn (Corn; 0.0701 kg/ha) | plant injury rating, Corn (Corn; 0.2803 kg/ha) | plant injury rating, Bygr (Bygr; 0.0701 kg/ha) | plant injury rating, Bygr (Bygr; 0.2803 kg/ha) | plant injury rating, Grft (Grft; 0.0701 kg/ha) | plant injury rating, Prmi (Prmi; 0.0701 kg/ha) | plant injury rating, Whez (Whez; 0.0701 kg/ha) | plant injury rating, Whez (Whez; 0.2803 kg/ha) | plant injury rating, Whez (Whez; 1.1210 kg/ha) | plant injury rating, Whez (Whez; 5.3808 kg/ha) | plant injury rating, Sobe (Sobe; 0.0701 kg/ha)

From patent publication US5391540A, “Substituted pyridine compounds” (Rohm and Haas Company, priority 1993, dated 1995)
